Data: US20080262011A1, “Modulator” (priority 2004, published 2008)

These molecules were tested against T1, CB1 receptors (Rattus norvegicus, UniProt P20272) (assay: Radioligand binding assay: displacement of [3H]SR141716A from rat cerebellar homogenates). Details: not given.
T1 construct: cerebellar membranes (400 μg wet weight per tube) were thoroughly mixed in a final volume of 0.5 mL; from tissue; host or cells: rat cerebellum (Male Wistar rats), membrane homogenate
Description: SR141716A from rat cerebellar homogenates. […] (M).
Radioligand binding assays provide a simple measure of activity at the CB1 receptors. For functional activity, the vas deferens or cyclic 3′,5′-adenosine monophosphate (cAMP) assays described below are used. The assays are carried out with a protocol modified from the literature using the CB1 receptor antagonist [^3H] SR141716A (0.5 nM) in rat brain membranes. Male Wistar rats (150-200 g), which were allowed free access to food and water, were used. Briefly, animals were killed by cervical dislocation and cerebella dissected into ice-cold 0.25 M sucrose. Homogenates were prepared by suspension of cerebella in ice-cold 50 mM, pH 7.4 HEPES (assay) buffer using an Ultra-Turrax™ homogeniser. Homogenates were subsequently centrifuged at 45,000 rpm for 15 min at 4° C., and re-suspended in fresh ice-cold assay buffer to give a final concentration of 1 mg/mL wet weight. Compounds under test were dissolved in dimethyl sulfoxide (DMSO) and transferred to 14 mL polypropylene test tubes. [^3H] SR141617A {final concentration of approximately 0.5 nM prepared in assay buffer containing 0.1% v/v tris(2-butoxyethyl)phosphate} and cerebellar membranes (400 μg wet weight per tube) were thoroughly mixed in a final volume of 0.5 mL and incubated for 1 h at 37° C. The tubes were transferred to a Brandel filtration apparatus, 5 mL ice-cold assay buffer added, and the tube contents vacuum-aspirated through Whatman GF/C glass fibre filters. A further 5 mL of ice-cold wash buffer was added to tubes and the wash/vacuum cycle repeated a further three times. The filters were transferred to plastic Mini-PolyQ™ vials, Picofluor™ liquid scintillant added, and radioactivity (dpm) was quantified using a Beckman LS6000 Liquid Scintillation Counter. The concentrations of competing ligand (test compounds) to produce 50% displacement of the radioligand (IC50) from specific binding sites were computed using Origin™, by fitting total bound ligand (y-axis as dpm) against compound concentration (x-axis, log 10[x] as M) to the logistic equation y=a+b/[1+exp{−c(x−IC50)}]. Where a=lower asymptote, b=specific bound and c=slope function.

T1 sequence (P20272 whole entry): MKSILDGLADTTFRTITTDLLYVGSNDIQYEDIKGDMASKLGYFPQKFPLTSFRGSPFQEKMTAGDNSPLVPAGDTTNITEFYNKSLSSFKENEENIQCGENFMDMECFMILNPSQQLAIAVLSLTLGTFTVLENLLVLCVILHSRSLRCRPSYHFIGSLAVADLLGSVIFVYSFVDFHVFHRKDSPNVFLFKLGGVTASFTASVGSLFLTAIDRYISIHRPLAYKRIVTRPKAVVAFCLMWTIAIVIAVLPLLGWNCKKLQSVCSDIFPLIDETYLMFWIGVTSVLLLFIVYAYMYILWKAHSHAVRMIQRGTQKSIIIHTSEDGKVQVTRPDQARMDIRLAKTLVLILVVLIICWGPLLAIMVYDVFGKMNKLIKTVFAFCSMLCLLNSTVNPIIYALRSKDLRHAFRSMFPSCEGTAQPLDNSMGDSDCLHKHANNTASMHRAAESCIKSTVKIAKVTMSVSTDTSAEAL

Compound	IC50 [nM]
CCCCCCC(C)(C)c1ccc(-c2cccc(CO)c2)c(O)c1 [VSN31, 4-(1,1-Dimethylheptyl)-3′-(hydroxymethyl)-1,1′-biphenyl-2-ol]	1600
CCCCCCC(C)(C)c1ccc(-c2cccc(O)c2)c(O)c1 [VSN13, 4-(1,1-Dimethylheptyl)-1,1′-biphenyl-2,3′-diol]	1500
CCCCCCC(C)(C)c1ccc(-c2cccc(NC(C)=O)c2)c(O)c1 [VSN30, N-[4′-(1,1-dimethylheptyl)-2′-hydroxy-1,1′-biphenyl-3-yl]-acetamide]	24600
CCCCCCC(C)(C)c1ccc(-c2cccnc2)c(O)c1 [VSN26, 5-(1,1-Dimethylheptyl)-2-pyridin-3-yl phenol]	3600
CCCCCCC(C)(C)c1ccc(-c2ccncc2)c(O)c1 [VSN27, 5-(1,1-Dimethylheptyl)-2-pyridin-4-yl phenol]	1600
CCCCCCC(C)(C)c1ccc(-c2cc(Cl)cc(Cl)c2)c(O)c1 [VSN28, 3′,5′-Dichloro-4-(1,1-dimethylheptyl)-1,1′-biphenyl-2-ol]	2200
CCCCCCC(C)(C)c1ccc(-c2cc(C)cc(C)c2)c(O)c1 [VSN29, 3′,5′-Dimethyl-4-(1,1-dimethylheptyl)-1,1′-biphenyl-2-ol]	200

Same assay, conditions: displacement of [3H]SR141716A (0.5 nM), rat cerebellar membranes; read-out: IC50

Compound	IC50 [nM]
CN(C)C(=O)CCCCC(C)(C)c1ccc(-c2cccc(O)c2)c(O)c1 [VSN32]	500

Each molecule was assayed against T2, central CB1 receptors (Mus musculus, UniProt P47746) (assay: Psychotropic activity: adverse cannabimimetic (tetrad) effects in mice). Details: in vivo, FIG. 6 legend.
T2 construct: from tissue; host or cells: whole animal (normal mice), CNS
Description: Many CB1 agonists are known to induce psychotropic associated “tetrad effects” due to central binding to CB receptors [Howlett, A. C. et al, International Union of Pharmacology. XXVII, Pharmacol. Rev. 2002, 54, 161-202]. Studies were undertaken to investigate whether the compounds of the present invention also bound to central CB1 receptors. This is assessed by measuring the ability of the compounds to induce sedation, ptosis, hypomotility, catalepsy and hypothermia in normal mice [Brooks, J. W. et al, Eur. J. Pharmacol. 2002, 439, 83-92], following i.v., i.p. and oral administration.

T2 sequence (P47746 whole entry): as the sequence (P20272 whole entry) above, with E95D counted along it

Compound	adverse cannabimimetic effects
CCCCCCC(C)(C)c1ccc(-c2cccc(O)c2)c(O)c1 [VSN13, 4-(1,1-Dimethylheptyl)-1,1′-biphenyl-2,3′-diol]	does not exhibit adverse cannabimimetic effects
